Earlier results as cited in patent publication EP2792015B1, “HIGH SPECIFIC-ENERGY LI/02-CO2 BATTERY” (Robert Bosch GmbH, priority 2011, dated 2013).
Values after ≈ are worked out from the molar mass of the structure shown. Read-outs that look alike come from different tables or passages of the source.

Conditions: 1 atmosphere and 25°C

O=O [O2, oxygen]
Solubility (in H2O): 8.3 µg/mL (≈ 0.259 mM) | Solubility (in propylene carbonate): 110 µg/mL (≈ 3.44 mM)

O=C=O [CO2, carbon dioxide]
Solubility (in H2O): 1450 µg/mL (≈ 32.9 mM) | Solubility (in propylene carbonate): 6115 µg/mL (≈ 139 mM)
